This note sets out measurements from US11160788B2, “Caspase-1 inhibition and uses thereof for prevention and treatment of neurological conditions” (priority 2016, dated 2021).

For one assay, the target named is T1, recombinant human Casp1 (Homo sapiens, UniProt P29466).
T1 sequence (P29466 120-297 limits assumed): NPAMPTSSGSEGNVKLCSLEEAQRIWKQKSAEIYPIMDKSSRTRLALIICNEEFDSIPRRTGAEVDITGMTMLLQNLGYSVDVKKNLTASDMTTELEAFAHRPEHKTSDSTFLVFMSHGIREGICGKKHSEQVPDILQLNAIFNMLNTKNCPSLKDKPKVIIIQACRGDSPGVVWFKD
T1 sequence (P29466 317-404 limits assumed): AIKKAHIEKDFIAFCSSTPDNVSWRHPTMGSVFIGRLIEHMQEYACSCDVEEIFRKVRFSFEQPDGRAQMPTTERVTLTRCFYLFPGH
Nature of the assay: Caspase inhibition IC50, recombinant human Casp1. The note with it: read-out: IC50 against human Casp1. Type of assay: biochemical. The method, then:
(§1) FIG. 14: Selectivity and blood brain permeability of VX-765 and VRT-043198. (a-b) IC50 of VX-765 (a) and VRT-043198 (b) against human Casp1-10. (c-d) IC50 of VX-765 (c) and VRT-043198 (d) against mouse Casp1 and Casp11. (e) Blood brain barrier permeability and presence of VX-765 and VRT-043198 in 3 wild type and 4 J20 mice brain cortex and hippocampus and in plasma. Ratios of brain levels to plasma levels are calculated.

The target in a further assay is T2, mouse recombinant Casp1 (Mus musculus, UniProt P29452).
T2 sequence (P29452 119-296 limits assumed): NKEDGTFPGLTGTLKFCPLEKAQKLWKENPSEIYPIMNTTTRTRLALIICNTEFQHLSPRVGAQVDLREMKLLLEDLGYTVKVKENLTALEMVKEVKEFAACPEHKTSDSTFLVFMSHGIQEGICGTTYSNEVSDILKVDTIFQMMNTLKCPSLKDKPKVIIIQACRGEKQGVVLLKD
T2 sequence (P29452 315-402 limits assumed): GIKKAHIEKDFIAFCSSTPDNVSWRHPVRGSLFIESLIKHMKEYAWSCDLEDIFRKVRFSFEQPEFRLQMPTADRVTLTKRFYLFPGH
Nature of the assay: Caspase inhibition IC50, mouse recombinant Casp1. Type of assay: biochemical. The note with it: read-out: IC50 against mouse Casp1. How it is done: as §1

In assay [1] the test system is APP^WT-transfected human primary neurons. The experiment in a line: Neuritic beading in APPWT-transfected human primary neurons. Type of assay: cell-based. The method, then:
(§2) FIG. 13: VX-765 protects CNS primary human neurons (HPN) against APP- or serum deprivation-mediated neuritic beading. (a) MTT assay with increasing dose of VX-765. (b) Fluorescent micrographs showing homogeneous distribution of EGFP in normal neurons and neuritic beading in APP-transfected neurons. (c) Percentage beading in APP-transfected or serum-deprived neurons treated 1 h before and continuously with stressor (Pre-treatment) or 48 h after stressor (post-beading treatment) with 25 or 50 μM VX-765 or with 5 μM Z-YVAD-fmk Casp1 peptide inhibitor. […] (d-e) HPN secreted or cellular Aβ42/total Aβ38+40+42 (d) (F(3,4)=12.73, p=0.0163, ANOVA, Dunnett's post-hoc compared to Serum+DMSO, *p<0.05), and (e) levels of secreted II-1β, IFN-γ, TNF-α, and II-6 from untreated (+S), serum deprived (−S), or serum-deprived human neurons treated with 25 or 50 μM VX-765.
(§3) EGFP-labeled human primary neurons were either APP^WT transfected or serum deprived. Two treatment strategies were employed to determine VX-765's effects on neuronal degeneration: our Pre-Treatment strategy looked at whether VX-765 could block neuronal degeneration when administered 1 hr prior to APP^WT transfection or serum deprivation, while our Reversal Treatment strategy looked at whether VX-765 could reverse degenerative effects when administered 48 hrs after APP^WT transfection or serum deprivation. Neurons displaying beaded morphology were counted with live imaging and measured as a percentage of the total number of eGFP+ neurons from 24-72 hrs after treatment. The irreversible caspase-1 inhibitor YVAD-fmk was used as positive control in our experiments. Results were obtained from averaging counts for at least 100 eGFP+ neurons per experiment in three independent neuron preparations.

The subject of assay [2] is serum deprived human primary neurons. The experiment in a line: Neuritic beading in serum-deprived human primary neurons. To be noted: reversal treatment 48 hrs after serum deprivation. Type of assay: cell-based. How it is done:
as §2, §3

The IC50 is the concentration needed to halve the response being measured.

Turning to `CC(C)(C)[C@H](NC(=O)c1ccc(N)c(Cl)c1)C(=O)N1CCC[C@H]1C(=O)N[C@H]1CC(=O)OC1O` (stereo partly drawn) [VRT-043198, (2S)-1-((S)-2-(4-amino-3-chlorobenzamido)-3,3-dimethylbutanoyl)-N-((3S)-2-hydroxy-5-oxotetrahydrofuran-3-yl)pyrrolidine-2-carboxamide], the IC50 on recombinant human Casp1 was determined as 9.91 nM; on mouse recombinant Casp1, 18 nM.
Take Z-YVAD-fmk: the neuritic beading result in assay [1] (pre-treatment 1 h before and continued, VX-765 25 and 50 μM, Z-YVAD-fmk 5 μM, 48 and 72 h) is “prevented neuritic beading”; in assay [1] (reversal (post-beading) treatment 48 hrs after APP^WT transfection, listed as YVAD), “not able to reverse neuritic beading at any time-point”; in assay [1] (reversal (post-beading) treatment 48 hrs after APP^WT transfection, listed as YVAD-fmk), “unable to reverse or prevent neuritic beading at any time-point”; in assay [2], “neither YVAD nor VX-765 were able to reverse neuritic beading”.
